Reference: patent US20220162192A1 (ESCAPE Bio, Inc., priority 2019, published 2022)

Tests used:
[1] = target: T1, Recombinant wild type LRRK2 protein (Homo sapiens, UniProt Q5S007); test: LanthaScreen Kinase Activity Assay (TR-FRET), wild type LRRK2; type: biochemical; settings: class symbols; 25 μM ATP, 400 nM LRRKtide, 2.9 nM kinase, 60 min at room temperature; read-out: LRRK2 WT IC50
T1 construct: purchased Life Technologies PR8604B
Method in brief: (§1)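 Recombinant wild-type or G2019S LRRK2 (2.9 nM final) phosphorylated fluorescein-LRRKtide (400 nM) with 25 μM ATP in 50 mM Tris pH 8.5, 5 mM MgCl2, 1 mM EGTA, 0.01% Brij-35, 2 mM DTT for 60 min at RT. After EDTA stop, Tb-anti-pERM TR-FRET (520/495 nm ratio) was read. IC50 values came from 11-point, 3-fold compound dilutions.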

[2] = target: T2, Recombinant G2019S-LRRK2 protein (Homo sapiens, UniProt Q5S007, G2019S); test: LanthaScreen Kinase Activity Assay (TR-FRET), G2019S-LRRK2; type: biochemical; settings: class symbols; 25 μM ATP, 400 nM LRRKtide, 2.9 nM kinase, 60 min at room temperature
T2 construct: purchased Life Technologies PV4881
T2 sequence (Q5S007 whole entry G2019S): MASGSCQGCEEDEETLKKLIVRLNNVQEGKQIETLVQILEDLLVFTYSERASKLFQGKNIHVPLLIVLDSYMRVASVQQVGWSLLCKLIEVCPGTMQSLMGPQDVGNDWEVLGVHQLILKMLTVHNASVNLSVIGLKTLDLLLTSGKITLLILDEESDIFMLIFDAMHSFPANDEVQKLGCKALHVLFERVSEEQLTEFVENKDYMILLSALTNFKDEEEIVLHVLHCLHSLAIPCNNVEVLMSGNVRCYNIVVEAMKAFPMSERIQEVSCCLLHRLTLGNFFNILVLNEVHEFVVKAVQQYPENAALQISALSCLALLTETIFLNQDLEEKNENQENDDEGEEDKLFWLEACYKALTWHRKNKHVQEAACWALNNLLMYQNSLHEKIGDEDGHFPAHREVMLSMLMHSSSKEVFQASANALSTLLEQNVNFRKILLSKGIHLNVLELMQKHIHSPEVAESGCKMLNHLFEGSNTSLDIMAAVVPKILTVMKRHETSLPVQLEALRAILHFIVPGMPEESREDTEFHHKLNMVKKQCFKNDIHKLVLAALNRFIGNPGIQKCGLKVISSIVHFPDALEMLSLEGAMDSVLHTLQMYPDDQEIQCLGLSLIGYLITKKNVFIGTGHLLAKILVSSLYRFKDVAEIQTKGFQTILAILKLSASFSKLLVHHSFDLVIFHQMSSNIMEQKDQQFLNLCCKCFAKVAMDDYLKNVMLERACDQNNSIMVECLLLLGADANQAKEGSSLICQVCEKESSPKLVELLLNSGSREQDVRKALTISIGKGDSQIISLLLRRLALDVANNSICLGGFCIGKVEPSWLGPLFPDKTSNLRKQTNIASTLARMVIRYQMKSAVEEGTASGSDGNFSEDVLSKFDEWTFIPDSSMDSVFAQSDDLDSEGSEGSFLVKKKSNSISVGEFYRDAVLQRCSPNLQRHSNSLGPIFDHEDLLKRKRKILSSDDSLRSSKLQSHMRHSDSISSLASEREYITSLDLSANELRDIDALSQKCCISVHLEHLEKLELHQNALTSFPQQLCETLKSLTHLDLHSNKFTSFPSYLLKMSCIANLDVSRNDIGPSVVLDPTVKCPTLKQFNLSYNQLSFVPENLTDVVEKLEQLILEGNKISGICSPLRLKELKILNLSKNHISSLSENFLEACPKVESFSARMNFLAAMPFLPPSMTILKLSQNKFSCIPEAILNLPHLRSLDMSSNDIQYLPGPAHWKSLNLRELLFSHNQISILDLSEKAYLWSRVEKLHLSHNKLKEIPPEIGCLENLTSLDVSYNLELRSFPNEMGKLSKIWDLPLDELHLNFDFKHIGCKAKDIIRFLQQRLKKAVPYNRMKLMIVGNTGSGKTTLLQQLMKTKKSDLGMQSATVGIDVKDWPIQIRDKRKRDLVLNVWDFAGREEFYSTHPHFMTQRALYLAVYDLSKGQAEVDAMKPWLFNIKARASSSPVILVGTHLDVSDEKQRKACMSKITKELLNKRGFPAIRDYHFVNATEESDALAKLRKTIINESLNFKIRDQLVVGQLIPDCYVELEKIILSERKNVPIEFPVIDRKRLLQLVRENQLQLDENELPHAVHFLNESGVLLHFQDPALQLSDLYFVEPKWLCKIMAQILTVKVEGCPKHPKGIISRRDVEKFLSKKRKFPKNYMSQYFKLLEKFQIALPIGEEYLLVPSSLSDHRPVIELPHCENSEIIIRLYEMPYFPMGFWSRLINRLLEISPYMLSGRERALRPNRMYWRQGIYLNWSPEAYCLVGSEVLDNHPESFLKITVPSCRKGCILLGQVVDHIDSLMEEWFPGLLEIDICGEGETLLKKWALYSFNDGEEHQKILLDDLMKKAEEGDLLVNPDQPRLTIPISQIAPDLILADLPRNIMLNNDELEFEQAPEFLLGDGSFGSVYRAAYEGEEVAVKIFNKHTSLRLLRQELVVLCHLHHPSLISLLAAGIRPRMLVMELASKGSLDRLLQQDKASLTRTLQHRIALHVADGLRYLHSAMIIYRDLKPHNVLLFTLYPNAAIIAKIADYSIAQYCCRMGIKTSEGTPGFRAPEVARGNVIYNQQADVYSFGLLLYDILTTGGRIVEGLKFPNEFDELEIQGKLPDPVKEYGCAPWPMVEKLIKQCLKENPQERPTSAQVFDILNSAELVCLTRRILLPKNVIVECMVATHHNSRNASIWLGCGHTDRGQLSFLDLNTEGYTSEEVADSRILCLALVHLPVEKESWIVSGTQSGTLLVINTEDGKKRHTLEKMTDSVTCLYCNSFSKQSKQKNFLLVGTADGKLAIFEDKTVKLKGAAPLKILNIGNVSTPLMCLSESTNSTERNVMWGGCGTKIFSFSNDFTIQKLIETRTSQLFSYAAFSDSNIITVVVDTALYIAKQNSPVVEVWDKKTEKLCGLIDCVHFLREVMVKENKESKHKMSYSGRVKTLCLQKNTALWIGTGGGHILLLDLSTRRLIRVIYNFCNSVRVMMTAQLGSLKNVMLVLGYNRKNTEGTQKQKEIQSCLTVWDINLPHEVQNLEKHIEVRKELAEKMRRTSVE
Method in brief: as §1

T1 sequence (Q5S007 whole entry): as the sequence (Q5S007 whole entry G2019S) above, with S2019G counted along it

Structure (SMILES) | IC50 [1] [nM] | IC50 [2] [nM]
O=C(Nc1ccc2[nH]nc(-c3ccccc3)c2c1)c1cc2[nH]ncc2cc1Br [Example 24, 5-Bromo-N-(3-phenyl-1H-indazol-5-yl)-1H-indazole-6-carboxamide] | ≤ 100 | ≤ 100
Cc1c(C(=O)Nc2ccc3[nH]nc(-c4ccccc4)c3c2)ccc2cncn12 [Example 62, 5-Methyl-N-(3-phenyl-1H-indazol-5-yl)imidazo[1,5-a]pyridine-6-carboxamide] | 100 to 1000 | ≤ 100
Cn1cc2cc(C(=O)Nc3ccc4[nH]nc(-c5cnco5)c4c3)ncc2n1 [Example 159, 2-Methyl-N-(3-(oxazol-5-yl)-1H-indazol-5-yl)-2H-pyrazolo[3,4-c]pyridine-5-carboxamide] | ≤ 100 | ≤ 100
Cn1ncc2cc(C(=O)Nc3ccc4[nH]nc(-c5cnco5)c4c3)ncc21 [Example 167, 1-Methyl-N-(3-(oxazol-5-yl)-1H-indazol-5-yl)-1H-pyrazolo[3,4-c]pyridine-5-carboxamide] | 100 to 1000 | ≤ 100
